Data taken from ChEMBL document CHEMBL4265985, “Discovery of a potent, low-absorbable sodium-dependent glucose cotransporter 1 (SGLT1) inhibitor (TP0438836) for the treatment of type 2 diabetes” (Bioorg Med Chem Lett, 2018).
The source made the active and inactive calls. No cut-off for these calls is given here.

Legend:
[1] = biological target: T1, Sodium/glucose cotransporter 1 (Homo sapiens, UniProt P13866); test: Inhibition of human SGLT1 expressed in CHOK1 cells assessed as reduction in Na-dependent [14C]-methyl-alpha-D-glucopyranoside uptake after 30 mins by microbeta counting method; format: cell-based
T1 sequence (P13866 whole entry): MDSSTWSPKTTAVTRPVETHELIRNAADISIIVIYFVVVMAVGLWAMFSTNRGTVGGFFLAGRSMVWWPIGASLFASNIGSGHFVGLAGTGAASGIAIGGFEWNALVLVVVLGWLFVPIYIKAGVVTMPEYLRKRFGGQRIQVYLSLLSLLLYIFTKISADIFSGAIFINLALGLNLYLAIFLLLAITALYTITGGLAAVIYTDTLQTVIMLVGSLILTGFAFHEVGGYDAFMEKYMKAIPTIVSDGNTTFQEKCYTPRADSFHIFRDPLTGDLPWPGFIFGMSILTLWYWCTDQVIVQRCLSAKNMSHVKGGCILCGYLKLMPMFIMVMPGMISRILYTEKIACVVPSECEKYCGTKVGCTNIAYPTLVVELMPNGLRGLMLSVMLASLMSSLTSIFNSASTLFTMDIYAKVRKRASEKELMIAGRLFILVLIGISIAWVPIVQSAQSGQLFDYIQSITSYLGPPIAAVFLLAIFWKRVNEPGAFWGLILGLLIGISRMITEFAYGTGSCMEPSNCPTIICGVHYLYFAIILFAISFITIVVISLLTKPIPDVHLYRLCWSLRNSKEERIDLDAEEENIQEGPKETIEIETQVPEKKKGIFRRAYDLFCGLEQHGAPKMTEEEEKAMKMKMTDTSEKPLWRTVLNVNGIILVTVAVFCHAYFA

[2] = biological target: T2, Sodium/glucose cotransporter 2 (Homo sapiens, UniProt P31639); test: Inhibition of human SGLT2 expressed in CHOK1 cells assessed as reduction in Na-dependent [14C]-methyl-alpha-D-glucopyranoside uptake after 1 hr by microbeta counting method; format: cell-based
T2 sequence (P31639 whole entry): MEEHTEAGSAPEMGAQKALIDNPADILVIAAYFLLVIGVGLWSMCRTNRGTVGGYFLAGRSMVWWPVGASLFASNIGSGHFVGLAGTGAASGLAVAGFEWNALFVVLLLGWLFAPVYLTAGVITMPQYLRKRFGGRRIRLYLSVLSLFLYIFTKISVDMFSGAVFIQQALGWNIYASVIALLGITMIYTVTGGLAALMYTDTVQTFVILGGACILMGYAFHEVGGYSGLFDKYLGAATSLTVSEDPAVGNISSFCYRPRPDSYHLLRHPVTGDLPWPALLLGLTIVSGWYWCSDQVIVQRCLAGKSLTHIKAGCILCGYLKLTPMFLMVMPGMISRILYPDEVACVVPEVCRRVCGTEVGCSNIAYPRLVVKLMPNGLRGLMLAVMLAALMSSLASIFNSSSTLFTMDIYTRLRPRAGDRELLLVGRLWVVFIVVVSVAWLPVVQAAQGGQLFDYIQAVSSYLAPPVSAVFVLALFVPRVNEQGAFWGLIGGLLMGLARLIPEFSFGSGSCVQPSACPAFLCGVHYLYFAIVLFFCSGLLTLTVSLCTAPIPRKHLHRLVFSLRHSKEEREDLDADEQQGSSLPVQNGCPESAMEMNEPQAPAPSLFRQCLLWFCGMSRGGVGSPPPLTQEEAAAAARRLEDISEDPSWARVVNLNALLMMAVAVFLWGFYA

[3] = Permeability of the compound at 50 uM after 24 hrs at pH 7.4 by PAMPA; format: ADME; details: read-out: permeability
Rattus norvegicus [4] = test: Hypoglycemic effect in Sprague-Dawley rat assessed as reduction in blood glucose AUC (0 to 2 hrs) pretreated orally followed by glucose challenge by OGTT; format: functional, organism-based
[5] = Tmax in Sprague-Dawley rat at 1 mg/kg, po administered as single dose by LC-MS analysis; format: ADME, organism-based; details: in vivo
[6] = Terminal half life in Sprague-Dawley rat at 2 mg/kg, iv administered as single dose by LC-MS analysis; format: ADME, organism-based; details: in vivo, read-out: beta t1/2 (converted)
Rattus norvegicus [7] = test: Hypoglycemic effect in Sprague-Dawley rat assessed as reduction in blood glucose AUC (0 to 2 hrs) at 0.1 mg/kg, po pretreated followed by glucose challenge by OGTT relative to control; format: functional; parameters: scale not given: the % may be the effect or the level left
[8] = Cmax in Sprague-Dawley rat at 1 mg/kg, po administered as single dose by LC-MS analysis; format: ADME, organism-based; parameters: dose 1 mg/kg, route oral; details: in vivo
Rattus norvegicus [9] = test: In vivo inhibition of SGLT2 Sprague-Dawley rat assessed as increase in urinary glucose excretion at 0.1 to 0.3 mg/kg, po bid for 4 days followed by glucose challenge on day 5; format: functional, organism-based
[10] = Volume of distribution at steady state in Sprague-Dawley rat at 2 mg/kg, iv administered as single dose by LC-MS analysis; format: ADME, organism-based; details: in vivo, read-out: Vdss
[11] = Oral bioavailability in Sprague-Dawley rat at 1 mg/kg administered as single dose by LC-MS analysis; format: ADME, organism-based; details: in vivo
Rattus norvegicus [12] = test: Hypoglycemic effect in Sprague-Dawley rat assessed as reduction in blood glucose AUC (0 to 2 hrs) at 0.3 mg/kg, po pretreated followed by glucose challenge by OGTT relative to control; format: functional; parameters: scale not given: the % may be the effect or the level left
[13] = Total clearance in Sprague-Dawley rat at 2 mg/kg, iv administered as single dose by LC-MS analysis; format: ADME, organism-based; details: in vivo
Rattus norvegicus [14] = test: Hypoglycemic effect in Sprague-Dawley rat assessed as reduction in blood glucose AUC (0 to 2 hrs) at 1 mg/kg, po pretreated followed by glucose challenge by OGTT relative to control; format: functional; parameters: scale not given: the % may be the effect or the level left

SMILES	IC50 [1] [nM]	IC50 [2] [nM]	other results
Cc1cc(O)c([C@@H]2O[C@H](CO)[C@@H](O)[C@H](O)[C@H]2O)cc1Cc1ccc(CCNC(=O)NC(C)(C)CO)cc1		4	
Cc1cc(O)c([C@@H]2S[C@H](CO)[C@@H](O)[C@H](O)[C@H]2O)cc1Cc1ccc(OC(C)C)cc1	414	3	
Cc1cc(O)c([C@@H]2O[C@H](CO)[C@@H](O)[C@H](O)[C@H]2O)cc1Cc1ccc(CCCC(=O)NC(C)(CO)CO)cc1	32		
Cc1cc(O)c([C@@H]2S[C@H](CO)[C@@H](O)[C@H](O)[C@H]2O)cc1Cc1ccc(CCCC(=O)NC(C)(CO)CO)cc1	22	5	
Cc1cc(O)c([C@@H]2O[C@H](CO)[C@@H](O)[C@H](O)[C@H]2O)cc1Cc1ccc(CCCNC(=O)NC(CO)(CO)CO)cc1		7	
Cc1cc(O)c([C@@H]2O[C@H](CO)[C@@H](O)[C@H](O)[C@H]2O)cc1Cc1ccc(CCCC(=O)NC(C)(C)C(N)=O)cc1	51	7	
CCc1ccc(Cc2cc([C@@H]3S[C@H](CO)[C@@H](O)[C@H](O)[C@H]3O)c(O)cc2C)cc1		2	
COc1ccc(Cc2cc([C@@H]3S[C@H](CO)[C@@H](O)[C@H](O)[C@H]3O)c(O)cc2C)cc1	65		
Cc1cc(O)c([C@@H]2O[C@H](CO)[C@@H](O)[C@H](O)[C@H]2O)cc1Cc1ccc(CCCNC(=O)NC(C)(C)CO)cc1		5	

Now from value to molecule, other results behind:

IC50 [1] [nM]	IC50 [2] [nM]	SMILES	other results
35		Cc1cc(O)c([C@@H]2O[C@H](CO)[C@@H](O)[C@H](O)[C@H]2O)cc1Cc1ccc(CCCC(=O)NC(CO)(CO)CO)cc1	
35	9	Cc1cc(O)c([C@@H]2S[C@H](CO)[C@@H](O)[C@H](O)[C@H]2O)cc1Cc1ccc(CCCC(=O)NC(CO)(CO)CO)cc1	
25	2	Cc1ccc(Cc2cc([C@@H]3S[C@H](CO)[C@@H](O)[C@H](O)[C@H]3O)c(O)cc2C)cc1	
162	3	CCOc1ccc(Cc2cc([C@@H]3S[C@H](CO)[C@@H](O)[C@H](O)[C@H]3O)c(O)cc2C)cc1	
28	7	Cc1cc(O)c([C@@H]2O[C@H](CO)[C@@H](O)[C@H](O)[C@H]2O)cc1Cc1ccc(CCNC(=O)NC(CO)(CO)CO)cc1	Papp at 24 h, 50 µM [3]: 0.3 ×10⁻⁶ cm/s; Activity (Rattus norvegicus [4]): Dose-dependent effect; Tmax [5]: 15 min; half-life [6]: 21.7 min; Activity (Rattus norvegicus [7]): 31.5%; Cmax [8]: 1.46 ng/mL; inhibition (Rattus norvegicus [9]): inactive; Vd [10]: 0.439 L/kg; bioavailability [11]: 0.05%; Activity (Rattus norvegicus [12]): 58.5%; clearance [13]: 18 mL/min/kg; Activity (Rattus norvegicus [14]): 62.2%
47	4	Cc1cc(O)c([C@@H]2S[C@H](CO)[C@@H](O)[C@H](O)[C@H]2O)cc1Cc1ccc(CCCC(=O)NC(C)(C)C(N)=O)cc1	
764	5	Cc1cc(O)c([C@@H]2O[C@H](CO)[C@@H](O)[C@H](O)[C@H]2O)cc1Cc1ccc(CCCNC(=O)N2CCN(C)CC2)cc1	
